Source: publication PMC8279484 (Journal of Medicinal Chemistry, 2021)

Tests used:
[1] = system: NF-κB; assay: LPS-induced NF-κB-driven luciferase gene reporter assay in THP-1 Lucia monocytes; assay type: cell-based, human; conditions: for Rel. Slope: HS relative to LXA4 (1); for IC50: Homo sapiens, THP-1, read-out: Potency IC50; for IC50 / IC50 (range in words): LPS 50 ng/mL; for Potency Rel. Pot.: IC50 relative to LXA4 (1); for Efficacy Rel. Eff.: Imax relative to LXA4 (1); for reduction of LPS-induced NF-κB-driven luciferase activity: approximate extent; for (Single component) Rel. Score: Rel. Pot. / (Single component) Rel. Score: Rel. Sl.: score relative to LXA4 (1); for (Aggregate) Rel. PD Score: sum of efficacy, potency, slope scores relative to LXA4 (1); for Slope HS (Hill–Slope): slope of concentration–response curve
Description: Mycoplasma-free THP-1-Lucia NF-κB cells were grown in an RPMI 1640 (Gibco) medium containing 2 mM L-glutamine, 1.50 g/L sodium bicarbonate, 4.50 g/L glucose, 10 mM N-(2-hydroxyethyl)piperazine-N′-ethanesulfonic acid (HEPES), and 1 mM sodium pyruvate. Then, 10% heat-inactivated fetal bovine serum (FBS) (30 min at 56 °C), 100 μg/mL Normocin, and Pen-Strep (50 U/mL to 50 μg/mL) were also added to the growth media. As THP-1-Lucia cells were resistant to Zeocin, the latter was used as a selective antibiotic (a high dose, i.e., 100 μg/mL, was alternated every 2 weeks with a low dose, i.e., 10 μg/mL).
LXA41 and all of the tested sLXms were dissolved in ethanol and further diluted in a culture medium (final ethanol concentration 0.1%; equivalent concentrations were used as the vehicle control). Prior to in vitro experiments, THP-1-Lucia NF-κB cells were harvested and plated at 1 × 10^5 cells/well on 96-well plates and left to settle in the incubator at 37 °C, 95% humidity, and 5% CO2, in 0.1% FBS-containing media, pretreated for 30 min with increasing doses of LXA41, sLXms (from 10^–12 to 10^–6 M), or appropriate controls, followed by stimulation with 50 ng/mL LPS for 24 h.
NFκB activity was monitored in the human THP-1 monocytic leukemia cell line containing a stably integrated NF-κB-inducible Lucia reporter construct (as previously reported).[21] When stimulated with LPS, the transcription factor NF-κB is activated, upregulating the synthesis of proinflammatory mediators, thus bringing about an inflammatory response. In these cells, NF-κB activation is linked to a […] luciferase gene and can be measured using luminescence.
Heat-killed listeria monocytogenes (HKLM) (10^8/mL) was used as a positive control.[28] The levels of NF-κB-induced Luciferase were then measured in a culture supernatant using QUANTI-Luc as the detection reagent, and measurements were taken on a bioluminescence reader.
After 24 h, the levels of NF-κB-induced Lucia were assayed in a cell culture supernatant using QUANTI-Luc, as a detection reagent, on a bioluminescence reader (Synergy HT, BioTek Instruments, Inc. Vermont). Aliquots of the supernatant were retained for subsequent cytokine and LDH assays. Cellular proteins were extracted with a radioimmunoprecipitation assay (RIPA) buffer (Thermo Fisher, Ireland), supplemented with protease inhibitors (Sigma-Aldrich, Ireland). Lysates were clarified by centrifugation (3200g, 10’, 4 °C) to remove cell debris, and the cell protein level was quantified by performing a bicinchoninic acid (BCA) assay (as per the manufacturer’s instructions) reading the protein absorbance at 570 nm, using a spectrophotometer (SPECTRAMAX M2, Molecular Devices (U.K.) Limited). A “relative luminescence unit” (RLU) was obtained using the average value of the lum/abs ratio of two replicates.
The “coding” of the heat-map indicates the arbitrary criteria to assign points to each single PD component (efficacy = Imax or Emax; potency = IC50 or EC50; slope = HS) to generate a final (aggregate) relative PD score. […] If a single PD component was equal to the reference level (x = 1), then the single-component relative score was arbitrarily set to 0 (gray). If a single PD component was smaller than the reference level (x < 1), then the single-component relative score was arbitrarily set to −1 (light red) or −2 (dark red). If the curve of a single PD component was best fitting to a flat line (x = 0), then the single-component relative score was arbitrarily set to −4 (purple) (Table S1).

[2] = system: THP-1 LUCIA monocytes; assay: Intrinsic cytotoxicity: LDH release without LPS; assay type: cell-based, human; conditions: for Intrinsic Toxicity Level: LDH-associated level of cytotoxicity (high / moderate / low); for Intrinsic Toxicity TC50 (pM): half-maximal intrinsic LDH-associated toxic activity, no LPS
Description: We investigated the potential cytotoxicity of all candidate sLXms by assaying LDH release.[50] The response to LPS was arbitrarily set to 100%, and values were expressed relative to this. As previously reported by others, LPS provokes LDH release.[51] […] Ultimately, untreated cells defined the spontaneous cell release thresholds.
Lactate dehydrogenase (LDH) was assayed in cell supernatants to investigate possible cytotoxicity of the lead compound. LDH is rapidly released into the culture medium after disruption of the plasma membrane.[67],[69] After 24 h of exposure to sLXms, vehicle, or controls, followed by LPS stimulation, as described above, THP-1-Lucia NF-κB-cell supernatants were collected and LDH was assayed. Cytotoxicity was evaluated relative to vehicle controls. Maximum releasable LDH was determined in cells lysed with 2% Triton-X-100 (Sigma-Aldrich, Ireland). LDH levels were assessed by reading the absorbance at 490 nm (protein) and 690 nm (background noise), using a spectrophotometer (SPECTRAMAX M2, Molecular Devices (U.K.) Limited).

[3] = system: THP-1 LUCIA monocytes; assay: In vitro safety study: Safety index (Si), activity versus toxicity; assay type: cell-based, human; conditions: for IC50: Homo sapiens, THP-1, highest IC50 among the LPS-challenged assays (NF-κB activity, cytokine, LDH release), read-out: Extrinsic Activity hIC50; for Safety Index TC50/IC50: ratio of intrinsic TC50 to extrinsic hIC50
Description: A postanalysis “safety study” was conducted on all QNX-sLXms. For each tested compound, we calculated an in vitro “Safety index” (Si) by relating its “anti-inflammatory half-maximal activity” (the highest dose among the IC50 of the extrinsic LPS-challenged phenotype: NF-κB activity, proinflammatory cytokine, and LDH release) to its intrinsic “toxicity” (expressed as the relative half-maximal LDH-associated cytotoxicity). The generated Si is potentially predictive of a translational “therapeutic” range: the higher the Si, the safer the molecule is. As summarized in Table S4, Si values from all tested compounds fall in a broad range (7–50).

[4] = system: THP-1-MF0 macrophage; assay: Phagocytosis of fluorescent E. coli bioparticles by THP-1-MF0 macrophages; assay type: cell-based, human; conditions: for EC50: 30 min pretreatment, 2 h bioparticles, read-out: Potency EC50; for (Aggregate) Rel. PD Score / Potency Rel. Pot. / Single comp. score Rel Eff. / Single comp. score Rel. Pot.: relative to LXA4 (1)
Description: Mycoplasma-free THP-1 monocytes were grown in an RPMI 1640 (Gibco) medium containing 2 mM L-glutamine, 2.00 g/L sodium bicarbonate, and 2.00 g/L glucose. Then, 10% (v/v) heat-inactivated FBS (30 min at 56 °C) and Pen-Strep (100 U/mL to 100 μg/mL) were supplemented to the growth media.
Cell adherence was allowed for 1 h and 30 min at 37 °C/5% CO2. Cells were then treated for 30 min with controls and phagocytosis effectors for testing (vehicle, LXs, Rvs, or sLXms). Subsequently, media containing controls/effectors were vacuum-aspirated and replaced with a solution containing fluorescently prelabeled E. coli-derived bioparticles and cells were incubated in the dark for 2 h at 37 °C/5% CO2 to allow particle ingestion by monocytes/macrophages. After that, media containing bioparticles were vacuum-aspirated and replaced with a solution containing trypan blue and cells were incubated for 1 min at room temperature to allow quenching of unbound particles to ensure specificity of the fluorescent signal, deriving only from ingested particles (not shown). After aspiration of Trypan, the fluorescence reading was immediately performed at the following conditions: end point; reading from the bottom of the plate; Ex.480/Em.520 nm.

[5] = system: C57bl/6 mice; assay: Murine carrageenan-induced paw edema; assay type: in vivo, mouse; conditions: for % relative to carageenan-induced level: Veh = 100; for % relative to carageenan-induced level / % reduction relative to carageenan-induced level: (R)-6, (R)-17 2 μg/kg, Naproxen 50 mg/kg p.o.; for Paw swelling Index: Mean: n = 3
Description: Then, 50 μL of 1% carrageenan was injected with an equivalent volume of saline injected into the contralateral paw. Inflammation was presented as the difference in paw thickness over time using gauge (POCO 2T; Kroeplin, GmbH, Surrey, U.K.). Data are presented as mean ± SEM, n = 3 mice/treatment group.

IC50 ([1]; 24 h) | SMILES | Rel. Slope [1] | Potency Rel. Pot. [1] | Efficacy Rel. Eff. [1] | reduction of LPS-induced NF-κB-driven luciferase activity ([1]; 1 pM–1 μM) | (Single component) Rel. Score: Rel. Pot. [1] | (Single component) Rel. Score: Rel. Sl. [1] | (Aggregate) Rel. PD Score [1] | Intrinsic Toxicity TC50 (pM) [2] | IC50 [3] | Safety Index TC50/IC50 [3] | (Aggregate) Rel. PD Score [4] | Potency Rel. Pot. [4] | also measured
4 nM | CCC[C@@H](O)c1nc2ccccc2nc1/C=C/[C@@H](O)[C@@H](O)CCCC(=O)OC [(R)-7, Methyl (5S,6R,E)-5,6-Dihydroxy-8-(3-((R)-1-hydroxybutyl)quinoxalin-2-yl)oct-7-enoate] | 0.55 | 0.015 | 1.21 | 30–35% | -2 (x < 0.1) | -1 (0.01 < x < 1) | -2 | 2,000 pM | 0.1 nM | 20 |  |  | IC50 (range in words) ([1]; 24 h): “nM” range; Intrinsic Toxicity Level [2]: Low-Mod.; intrinsic LDH release versus vehicle / spontaneous cell release ([2]; absence of LPS, 24 h, controls Dex 1 μM, 2 1 pM, 5 1 pM): lower than the vehicle
1 nM | CCC[C@H](O)c1nc2ccccc2nc1/C=C/[C@@H](O)[C@@H](O)CCCC(=O)OC [(S)-7, Methyl (5S,6R,E)-5,6-Dihydroxy-8-(3-((S)-1-hydroxybutyl)quinoxalin-2-yl)oct-7-enoate] | 0.60 | 0.1 | 1.50 | 30–35% | -2 (x < 0.1) | -1 (0.01 < x < 1) | -1 | 110,000 pM | 15 nM | 7 |  |  | IC50 (range in words) ([1]; 24 h): “nM” range; Slope HS (Hill–Slope) [1]: -6; Intrinsic Toxicity Level [2]: Low-Mod.
0.003 nM | CCCCC[C@H](O)c1nc2ccccc2nc1/C=C/[C@H]1OC(C)(C)O[C@H]1CCCC(=O)OC [(S)-17, Methyl 4-((4S,5R)-5-((E)-2-(3-((S)-1-Hydroxyhexyl)quinoxalin-2-yl)vinyl)-2,2-dimethyl-1,3-dioxolan-4-yl)butanoate] | 0 | 24 | 0.79 | least effective | 2 (x ≥ 5) | -4 (x = 0) | -3 | 100 pM | 0.003 nM | 33 |  |  | Imax (%) ([1]; maximal % inhibition of LPS (50 ng/mL)-stimulated NF-κB luciferase activity, 30 min pretreatment, 24 h, 1 pM–1 μM): 19 ± 3%; Slope HS (Hill–Slope) [1]: 0
 | CCCCC[C@H](O)[C@H](O)/C=C/C=C/C=C\C=C\[C@@H](O)CCCC(=O)O [LXB4] |  |  |  |  |  |  |  |  |  |  | -2 | 1 | EC50 [4]: 5 nM; Single comp. score Rel Eff. [4]: -2
 | COc1ccc2cc([C@H](C)C(=O)O)ccc2c1 [Naproxen, reference compound] |  |  |  |  |  |  |  |  |  |  |  |  | % relative to carageenan-induced level ([5]; 4h): 118%; % relative to carageenan-induced level ([5]; 8h): 40%; % relative to carageenan-induced level ([5]; 24h): 55%; % reduction relative to carageenan-induced level ([5]; 48h): 60%; % relative to carageenan-induced level ([5]; 48h): 160%; % reduction relative to carageenan-induced level ([5]; 72h): 450%; % relative to carageenan-induced level ([5]; 72h): 550%; effect on inflammatory response (paw swelling), in words ([5]; (R)-6, (R)-17 2 μg/kg ip, Naproxen 50 mg/kg po): inflammation persisted after 72 h; Paw swelling Index: Mean ([5]; Time 4h, (R)-6, (R)-17 2 μg/kg ip, Naproxen 50 mg/kg po, 1% carrageenan): 0.08; Paw swelling Index: Mean ([5]; Time 8h, (R)-6, (R)-17 2 μg/kg ip, Naproxen 50 mg/kg po): 0.16; Paw swelling Index: Mean ([5]; Time 24h, (R)-6, (R)-17 2 μg/kg ip, Naproxen 50 mg/kg po): 0.48; Paw swelling Index: Mean ([5]; Time 48h, (R)-6, (R)-17 2 μg/kg ip, Naproxen 50 mg/kg po): 0.65; Paw swelling Index: Mean ([5]; Time 72h, (R)-6, (R)-17 2 μg/kg ip, Naproxen 50 mg/kg po): 0.55
 | CC/C=C\C[C@H](O)/C=C/C=C\C=C\C=C\[C@@H](O)[C@@H](O)C/C=C\CCC(=O)O [RvD1] |  |  |  |  |  |  |  |  |  |  | 1 | 10000 | Single comp. score Rel. Pot. [4]: 2 (x ≥ 5)
 | CC[C@@H](O)/C=C/C=C\C[C@@H](O)/C=C/C=C/C=C\[C@@H](O)CCCC(=O)O [RvE1] |  |  |  |  |  |  |  |  |  |  | 0 | 5000 | EC50 [4]: 0.001 nM; Single comp. score Rel Eff. [4]: -2; Single comp. score Rel. Pot. [4]: 2 (x ≥ 5)
